# Test results as given in patent US20240158446A1, “CYCLIC COMPOUND HAVING SELECTIVE INHIBITORY ACTION ON KRAS OVER HRAS AND NRAS” (CHUGAI SEIYAKU KABUSHIKI KAISHA, priority 2021, published 2024).
# pKd: −log10 of the molar value. Where two headings read alike, the source gives them in different places. Where a SMILES comes first, the peptide text is derived from it. Bridges are numbered along the chain shown (N, C = ends). [ ]: non-standard residue; d: D form. The star is where a group is joined. hPhe(3,5-F2-4-CF3) = N[C@@H](CCc1cc(F)c(C(F)(F)F)c(F)c1)C(=O)O; hPhe(3-Cl-4-CF3) = N[C@@H](CCc1ccc(C(F)(F)F)c(Cl)c1)C(=O)O; NPrPhe(4-CF3) = CCCN[C@@H](Cc1ccc(C(F)(F)F)cc1)C(=O)O; NEtPhe(4-CF3) = CCN[C@@H](Cc1ccc(C(F)(F)F)cc1)C(=O)O; NMeGly(cPent) = CN[C@H](C(=O)O)C1CCCC1; Pro(4,4-F2) = O=C(O)[C@@H]1CC(F)(F)CN1; Hyp = O=C(O)[C@@H]1C[C@@H](O)CN1; NMeF = CN[C@@H](Cc1ccccc1)C(=O)O; NMeD = CN[C@@H](CC(=O)O)C(=O)O; NMeL = CN[C@@H](CC(C)C)C(=O)O; αMeS = C[C@](N)(CO)C(=O)O; Ac6c = NC1(C(=O)O)CCCCC1; Morpholide = C1CN(*)CCO1; NMeA = CN[C@@H](C)C(=O)O; Ac5c = NC1(C(=O)O)CCCC1; Aze = O=C(O)[C@@H]1CCN1; Sar = CNCC(=O)O
# Key:
# [1] = target: GDP-bound KRAS wild-type protein (Homo sapiens, UniProt P01116); assay: Binding to KRAS by surface plasmon resonance (SPR), Single Cycle Kinetics; conditions: GDP-bound KRAS wild-type protein, read-out: KRAS KD
# [2] = target: GDP-bound NRAS wild-type protein (Homo sapiens, UniProt P01111); assay: Binding to NRAS by surface plasmon resonance (SPR), Single Cycle Kinetics; conditions: for NRAS/KRAS (ratio of KD value with respect to NRAS to KD value with respect to KRAS) / NRAS/KRAS (ratio of KD value for NRAS to KD value for KRAS): SPR, GDP-bound NRAS wild-type protein vs GDP-bound KRAS wild-type protein; for NRAS/KRAS (ratio of KD value with respect to GDP-bound NRAS wild-type protein to KD value with respect to KRAS): SPR KD ratio NRAS/KRAS, class symbols
# [3] = target: GDP-bound HRAS wild-type protein (Homo sapiens, UniProt P01112); assay: Binding to HRAS by surface plasmon resonance (SPR), Single Cycle Kinetics; conditions: for HRAS/KRAS (ratio of KD value with respect to HRAS to KD value with respect to KRAS) / HRAS/KRAS (ratio of KD value for HRAS to KD value for KRAS): SPR, GDP-bound HRAS wild-type protein vs GDP-bound KRAS wild-type protein; for HRAS/KRAS (ratio of KD value with respect to GDP-bound HRAS wild-type protein to KD value with respect to KRAS): SPR KD ratio HRAS/KRAS, class symbols
# [4] = SPR Single Cycle Kinetics, 1:1 binding model
# GDP-bound NRAS wild-type protein, sequence (P01111 whole entry): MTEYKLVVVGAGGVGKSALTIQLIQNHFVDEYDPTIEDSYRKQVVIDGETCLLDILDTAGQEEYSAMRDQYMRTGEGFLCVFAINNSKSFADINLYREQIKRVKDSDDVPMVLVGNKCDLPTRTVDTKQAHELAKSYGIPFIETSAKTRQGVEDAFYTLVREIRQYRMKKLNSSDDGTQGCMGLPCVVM
# GDP-bound KRAS wild-type protein, sequence (P01116 whole entry): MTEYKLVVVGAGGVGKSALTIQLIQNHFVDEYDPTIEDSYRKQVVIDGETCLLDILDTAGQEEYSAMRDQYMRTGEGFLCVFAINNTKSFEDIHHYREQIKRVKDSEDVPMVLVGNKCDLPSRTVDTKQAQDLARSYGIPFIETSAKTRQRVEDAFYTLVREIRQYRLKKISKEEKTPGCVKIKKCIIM
# GDP-bound HRAS wild-type protein, sequence (P01112 whole entry): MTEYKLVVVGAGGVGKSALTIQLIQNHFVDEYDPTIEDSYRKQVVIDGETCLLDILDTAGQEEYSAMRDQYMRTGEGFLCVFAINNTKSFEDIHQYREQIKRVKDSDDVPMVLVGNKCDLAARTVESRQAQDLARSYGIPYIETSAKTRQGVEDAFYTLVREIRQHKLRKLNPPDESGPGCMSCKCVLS
"pKd [1, 4]","pKd ([1]; SPR, Single Cycle Kinetics)",Compound,NRAS/KRAS (ratio of KD value with respect to NRAS to KD value with respect to KRAS) [2],HRAS/KRAS (ratio of KD value with respect to HRAS to KD value with respect to KRAS) [3],NRAS/KRAS (ratio of KD value for NRAS to KD value for KRAS) [2],HRAS/KRAS (ratio of KD value for HRAS to KD value for KRAS) [3],NRAS/KRAS (ratio of KD value with respect to GDP-bound NRAS wild-type protein to KD value with respect to KRAS) [2],HRAS/KRAS (ratio of KD value with respect to GDP-bound HRAS wild-type protein to KD value with respect to KRAS) [3]
9.55,,"CCCN1C(=O)CN(C)C(=O)CN(C)C(=O)[C@H]([C@@H](C)CC)NC(=O)[C@H](CC(C)C)N(C)C(=O)C[C@@H](C(=O)N(C)C)N(C)C(=O)[C@H](C2CCCC2)N(C)C(=O)[C@](C)(COC)NC(=O)[C@@H]2CCCN2C(=O)[C@H](CCc2cc(F)c(C(F)(F)F)c(F)c2)NC(=O)CN(C)C(=O)[C@@H]1Cc1ccc(C(F)(F)F)cc1 [PP0741] ([NMeL]I[Sar][Sar][NPrPhe(4-CF3)][Sar][hPhe(3,5-F2-4-CF3)]P[αMeS](Me)[NMeGly(cPent)][NMeD]-NMe2; lactam N-11)",B (a compound having 3 or more and less than 10 is denoted as B),B (a compound having 3 or more and less than 10 is denoted as B),,,,
,9.92,"CCO[C@@H]1C[C@H]2C(=O)NC3(CCC3)C(=O)N(C)[C@@H](CC(C)C)C(=O)N(C)[C@H](C(=O)N(C)C)CC(=O)N(C)[C@@H](CC)C(=O)N[C@@H]([C@@H](C)CC)C(=O)N(C)CC(=O)N(C)[C@H]3C/C=C\CCN(C3=O)[C@@H](Cc3ccc(C(F)(F)F)cc3)C(=O)N(C)CC(=O)N[C@@H](CCc3cc(F)c(C(F)(F)F)c(F)c3)C(=O)N2C1 [PP1089, (2S,8S,12R,14S,20S,23S,27S,30S,36S,38Z)-8-[2-[3,5-difluoro-4-(trifluoromethyl)phenyl]ethyl]-12-ethoxy-27-ethyl-20-isobutyl-N,N,4,19,22,26,32,35-octamethyl-30-[(1S)-1-methylpropyl]-3,6,9,15,18,21,25,28,31,34,42-undecaoxo-2-[[4-(trifluoromethyl)phenyl]methyl]spiro[1,4,7,10,16,19,22,26,29,32,35-undecazatricyclo[34.5.1.0^10,14]dotetracont-38-ene-17,1′-cyclobutane]-23-carboxamide]",,,AA (a compound having 20 or more is denoted as AA),A (a compound having 10 or more and less than 20 is denoted as A),,
10.43,,"CCCN1C(=O)[C@@H]2CCN2C(=O)CN(C)C(=O)[C@H]([C@@H](C)CC)NC(=O)[C@H](CC(C)C)N(C)C(=O)C[C@@H](C(=O)N(C)C)N(C)C(=O)[C@H](C2CCCC2)N(C)C(=O)C2(CCCC2)NC(=O)[C@@H]2CC(F)(F)CN2C(=O)[C@H](CCc2ccc(C(F)(F)F)c(Cl)c2)NC(=O)CN(C)C(=O)[C@@H]1Cc1ccc(C(F)(F)F)cc1 [PP0442] ([NMeL]I[Sar][Aze][NPrPhe(4-CF3)][Sar][hPhe(3-Cl-4-CF3)][Pro(4,4-F2)][Ac5c][NMeGly(cPent)][NMeD]-NMe2; lactam N-11)",C (A compound having a KD ratio of 0.1 or more and less than 3 is denoted as C),C (A compound having a KD ratio of 0.1 or more and less than 3 is denoted as C),,,,
9.60,,CCCN1C(=O)CN(C)C(=O)CN(C)C(=O)[C@H]([C@@H](C)CC)NC(=O)[C@H](CC(C)C)N(C)C(=O)C[C@@H](C(=O)N2CCOCC2)NC(=O)[C@H](C2CCCC2)N(C)C(=O)C2(CCCC2)NC(=O)[C@@H]2C[C@@H](OCC)CN2C(=O)[C@H](CCc2ccc(C(F)(F)F)c(Cl)c2)NC(=O)CN(C)C(=O)[C@@H]1Cc1ccc(C(F)(F)F)cc1 [PP0323] ([NMeL]I[Sar][Sar][NPrPhe(4-CF3)][Sar][hPhe(3-Cl-4-CF3)][Hyp](Et)[Ac5c][NMeGly(cPent)]D-Morpholide; lactam N-11),,,B (a compound having 3 or more and less than 10 is denoted as B),B (a compound having 3 or more and less than 10 is denoted as B),,

# Further lines, the compound ahead of its results:
Compound,"pKd [1, 4]","pKd ([1]; SPR, Single Cycle Kinetics)",NRAS/KRAS (ratio of KD value with respect to NRAS to KD value with respect to KRAS) [2],HRAS/KRAS (ratio of KD value with respect to HRAS to KD value with respect to KRAS) [3],NRAS/KRAS (ratio of KD value for NRAS to KD value for KRAS) [2],HRAS/KRAS (ratio of KD value for HRAS to KD value for KRAS) [3],NRAS/KRAS (ratio of KD value with respect to GDP-bound NRAS wild-type protein to KD value with respect to KRAS) [2],HRAS/KRAS (ratio of KD value with respect to GDP-bound HRAS wild-type protein to KD value with respect to KRAS) [3]
CC[C@H](C)[C@@H]1NC(=O)[C@H](CC(C)C)N(C)C(=O)C[C@@H](C(=O)N(C)C)N(C)C(=O)[C@H](C2CCCC2)N(C)C(=O)C2(CCC2)NC(=O)[C@@H]2CC(F)(F)CN2C(=O)[C@H](CCc2cc(F)c(C(F)(F)F)c(F)c2)NC(=O)CN(C)C(=O)[C@H](Cc2ccc(C(F)(F)F)cc2)N2CCCCC[C@@H](C2=O)N(C)C(=O)CN(C)C1=O [PP0466],9.70,,B (a compound having 3 or more and less than 10 is denoted as B),B (a compound having 3 or more and less than 10 is denoted as B),,,,
CCC[C@H]1C(=O)N[C@@H]([C@@H](C)CC)C(=O)N2CCC[C@H]2C(=O)N(C)[C@H]2C/C=C\CCN(C2=O)[C@@H](CC2CCCCC2)C(=O)N(C)CC(=O)N[C@@H](CCc2ccc(C(F)(F)F)c(OC)c2)C(=O)N2C[C@H](OCC)C[C@H]2C(=O)N(C)C2(CCC2)C(=O)N(C)[C@@H](C2CCCC2)C(=O)N(C)[C@H](C(=O)N(C)C)CC(=O)N1C [PP2344],,9.02,,,A (a compound having 10 or more and less than 20 is denoted as A),A (a compound having 10 or more and less than 20 is denoted as A),,
CCCOC[C@H]1C(=O)N[C@@H]([C@@H](C)CC)C(=O)N(C)CC(=O)N(C)[C@H]2C/C=C\CCN(C2=O)[C@@H](Cc2ccc(C)cc2)C(=O)N(C)CC(=O)N[C@@H](CCc2ccc(C(F)(F)F)c(Cl)c2)C(=O)N2C[C@H](C)C[C@H]2C(=O)NC2(CC(C)(C)C2)C(=O)N(C)[C@@H](C2CCCC2)C(=O)N(C)[C@H](C(=O)N(C)C)CC(=O)N1C [PP2234],,9.72,,,A (a compound having 10 or more and less than 20 is denoted as A),A (a compound having 10 or more and less than 20 is denoted as A),,
CC[C@H](C)[C@@H]1NC(=O)[C@H](C2CCC2)N(C)C(=O)C[C@@H](C(=O)N(C)CC)N(C)C(=O)[C@H](C2CCCC2)N(C)C(=O)C2(CCC2)NC(=O)[C@@H]2C[C@H](C)CN2C(=O)[C@H](CCc2ccc(C(F)(F)F)c(OC)c2)NC(=O)CN(C)C(=O)[C@H](Cc2ccc(C(F)(F)F)cc2)N2CC/C=C\C[C@@H](C2=O)N(C)C(=O)CN(C)C1=O [PP2071],,10.00,,,A (a compound having 10 or more and less than 20 is denoted as A),A (a compound having 10 or more and less than 20 is denoted as A),,
C#CCN1CC(=O)N(C)[C@H]2C/C=C\CCN(C2=O)[C@@H](Cc2ccc(C(F)(F)F)cc2)C(=O)N(C)CC(=O)N[C@@H](CCc2cc(F)c(C(F)(F)F)c(F)c2)C(=O)N2C[C@H](OCC)C[C@H]2C(=O)NC2(CC(C)(C)C2)C(=O)N(C)[C@@H](C2CCCC2)C(=O)N(C)[C@H](C(=O)N(C)C)CC(=O)N(C)[C@@H](CCC)C(=O)N[C@@H]([C@@H](C)CC)C1=O [PP2103],,9.60,,,A (a compound having 10 or more and less than 20 is denoted as A),A (a compound having 10 or more and less than 20 is denoted as A),,
CCO[C@@H]1C[C@H]2C(=O)NC3(CCC3)C(=O)N(C)[C@@H](C3CCCC3)C(=O)N(C)[C@H](C(=O)N(C)CC)CC(=O)N(C)[C@@H](CC(C)C)C(=O)N[C@@H]([C@@H](C)CC)C(=O)N(C)CC(=O)N(C)[C@H]3C/C=C\CCN(C3=O)[C@@H](Cc3ccc(C(F)(F)F)cc3)C(=O)N(C)CC(=O)N[C@@H](CCc3ccc(C(F)(F)F)c(OC)c3)C(=O)N2C1 [PP2846],10.04,,,,,,AA (a compound having 20 or more is denoted as AA),A (a compound having 10 or more and less than 20 is denoted as A)
CC[C@H](C)[C@@H]1NC(=O)[C@H](CC(C)C)N(C)C(=O)C[C@@H](C(=O)N2CCOCC2)N(C)C(=O)[C@H](C2CCCC2)N(C)C(=O)C2(CCCCC2)NC(=O)[C@@H]2CCCN2C(=O)[C@H](CCc2ccc(C(F)(F)F)c(Cl)c2)NC(=O)CN(C)C(=O)[C@H](Cc2ccc(C(F)(F)F)cc2)N(CC)C(=O)CN(C)C(=O)CN(C)C1=O [PP0236] ([NMeL]I[Sar][Sar][NEtPhe(4-CF3)][Sar][hPhe(3-Cl-4-CF3)]P[Ac6c][NMeGly(cPent)][NMeD]-Morpholide; lactam N-11),9.27,,,,B (a compound having 3 or more and less than 10 is denoted as B),C (A compound having a KD ratio of 0.1 or more and less than 3 is denoted as C),,
CCC[C@H]1C(=O)N[C@@H]([C@@H](C)CC)C(=O)N(C)CC(=O)N(C)[C@H]2C/C=C\CCN(C2=O)[C@@H](Cc2ccc(C(F)(F)F)cc2)C(=O)N(C)CC(=O)N[C@@H](CCc2cc(F)c3c(c2)CCC3)C(=O)N2C[C@H](OCC)C[C@H]2C(=O)NC2(CC(C)(C)C2)C(=O)N(C)[C@@H](C2CCCC2)C(=O)N(C)[C@H](C(=O)N(C)C)CC(=O)N1C [PP2849],9.24,,,,,,A (a compound having 10 or more and less than 20 is denoted as A),A (a compound having 10 or more and less than 20 is denoted as A)
CC[C@H](C)[C@@H]1NC(=O)[C@H](CC(C)C)N(C)C(=O)C[C@@H](C(=O)N2CCOCC2)N(C)C(=O)[C@H](C2CCCC2)N(C)C(=O)C2(CCCC2)NC(=O)[C@@H]2CCCN2C(=O)[C@H](CCc2ccc(C(F)(F)F)c(Cl)c2)NC(=O)CN(C)C(=O)[C@H](Cc2ccccc2)N(C)C(=O)[C@@H]2CCN2C(=O)[C@H](C)N(C)C1=O [PP0011] ([NMeL]I[NMeA][Aze][NMeF][Sar][hPhe(3-Cl-4-CF3)]P[Ac5c][NMeGly(cPent)][NMeD]-Morpholide; lactam N-11),9.52,,,,C (A compound having a KD ratio of 0.1 or more and less than 3 is denoted as C),C (A compound having a KD ratio of 0.1 or more and less than 3 is denoted as C),,
